Measured values taken from paper PMC5325326, “Evaluation of the intestinal permeability of rosemary (Rosmarinus officinalis L.) extract polyphenols and terpenoids in Caco-2 cell monolayers” (PLoS ONE, 2017).
“Also recorded” adds a separate entry of the source. Like-named read-outs stand apart in the source and are kept apart here.

What was measured:
[1] = Caco-2 monolayer transport study (apparent permeability, Papp) of rosemary extract compounds; settings: human, Caco-2, pH 7.4
Caco-2 cell monolayers [2] = assay: as above; settings: for Papp, Encapsulated RE, AB direction: liposomal RE formulation; for Papp, Encapsulated RE, AB direction / Papp, Non encapsulated RE, AB direction: apical to basolateral; for retention by Caco-2 cells: free formulation, AB direction
[3] = BCS classification based on experimental Papp (AB direction, free formulation); format: in vitro ADME; design: dose or concentration left out as unconfirmed; settings: human, Caco-2, pH 7.4, versus metoprolol Papp, Table 2, read-out: Permeability Based on Papp
Source text: The Biopharmaceutical Classification System (BCS) was developed by Amidon and coworkers twenty years ago to classify drugs for a waiver of in vivo bioequivalence studies. This system classifies drugs into four categories based on their intestinal permeability and solubility (see S1 Table), and currently this system is accepted worldwide by researchers and governmental institutions such as the FDA and EMA. In addition to its regulatory use, BCS is a tool for drug development because it helps identify the limiting factors in the absorption process. In this work, the 24 compounds identified from RE were classified individually according to this system to obtain relevant information regarding their absorbed oral fraction. For this purpose, only data derived from the free extract permeation were used.
Log P values were obtained for all compounds using ChemDraw software® Ultra version 8.0 (CambridgeSoft Corp. USA) and are shown in Table 2. The Log P value is a widely accepted parameter to express the lipophilicities of biological drugs in medicinal and agro chemistry. According to BCS, compounds are divided into high permeability (Class I: high permeability, high solubility; Class II: high permeability, low solubility) or low permeability (Class III: low permeability, high solubility; Class IV: low permeability, low solubility) categories by comparing with the Log P value (2.18) of the standard metoprolol, which is the reference compound employed for this purpose. Based on this parameter, the permeabilities of all compounds derived from RE were tabulated as high or low (Table 2). Moreover, the Papp value of this reference drug (0.6 x 10^−4 cm/s) was also available, which allowed us to establish another classification for the permeabilities of RE compounds based on this parameter, using the Papp values of the compounds obtained in the AB direction only for the free formulations (Table 2). Therefore, the Log P and Papp values were used in Table 2 to classify compounds as […] drugs for permeability, providing two different classifications based on the partition coefficient and the intestinal permeability.
As no information was available regarding the maximum doses of these compounds, two putative scenarios were selected to simulate a high-activity drug, dosed as a 10-mg tablet, or a low-activity drug, dosed as a 100-mg tablet. […] In the present study, all compounds were classified for BCS by considering the experimental data for absorption (Papp) and the calculated Log P value (Table 2). According to the Log P value, most compounds belong to the high-permeability classes (I and II), with class II being the most numerous (Fig 2A), except in the case of the flavonoids. However, when experimental Papp values were used for classification, the results changed dramatically, and low-permeability classes (III and IV) became the most abundant (Fig 2B). This classification was nearly independent of the solubility scenario and considered dose (compare Fig 2 and S1 Fig). […] Most flavones in RE were classified as class III (low permeability, high solubility) and class IV (low permeability, low solubility) with the exception of apigenin, for which no experimental Papp could be determined and, consequently, no BCS classification was proposed. […] The phenylpropanoid derivatives shogaol and shogaol isomer (gingerol-like compounds) were classified as class II (high permeability, low solubility), which is in agreement with the presence of a long saturated carbon chain in their structure that confers a certain degree of hydrophobicity to these compounds.

in vitro = settings: human, Caco-2, pH 7.4
Caco-2 cell monolayers [4] = test system: Caco-2 cell monolayers
Caco-2 cell monolayers [5] = test system: Caco-2 cell monolayers; design: method as in printed; settings: reference for BCS permeability class; stated as available, ref not given; cited from earlier work
[6] = 120 min, 37°C, mean of six replicates
[7] = free RE 200 μg/mL, 120 min, 37°C, mean of six replicates

In the case of COc1c(C(C)C)cc2c(c1O)[C@@]1(C(=O)O)CCCC(C)(C)[C@@H]1CC2 [12-Methoxycarnosic acid], the Papp A→B at 120 min, 200 μg/mL [1] is reported as 18.5 ×10⁻⁶ cm/s, the Papp B→A at 120 min, 200 μg/mL [1] is reported as 27.7 ×10⁻⁶ cm/s and the “Papp, Encapsulated RE, AB direction” value (Caco-2 cell monolayers [2]; [6]) is reported as “no absorption”. It also gave a Papp at 120 min [3] of under 60 ×10⁻⁶ cm/s.

C=C(C)[C@@H]1CC[C@]2(C(=O)O)CC[C@]3(C)[C@H](CC[C@@H]4[C@@]5(C)CC[C@H](O)[C@@](C)(CO)[C@@H]5CC[C@]43C)[C@@H]12 [Anemosapogenin] showed a Papp A→B at 120 min, 200 μg/mL [1] of 3.27 ×10⁻⁶ cm/s, a Papp B→A at 120 min, 200 μg/mL [1] of 6.17 ×10⁻⁶ cm/s and a Papp at 120 min [3] of under 60 ×10⁻⁶ cm/s.

In the case of CC1(C)CC[C@]2(C(=O)O)CC[C@]3(C)C(=CC[C@@H]4[C@@]5(C)C[C@H](O)[C@H](O)C(C)(C)[C@@H]5CC[C@]43C)[C@@H]2C1 [Augustic acid], the Papp A→B at 120 min, 200 μg/mL [1] is reported as 7.35 ×10⁻⁶ cm/s, the Papp B→A at 120 min, 200 μg/mL [1] is reported as 7.93 ×10⁻⁶ cm/s and the Papp at 120 min [3] is reported as under 60 ×10⁻⁶ cm/s.

Molecule CC1CCC2(C(=O)O)CCC3(C)C(=CCC4C5(C)CCC(O)C(C)(C)C5CCC43C)C2C1(C)O (centres unmarked) [Benthamic acid] has a Papp A→B at 120 min, 200 μg/mL [1] of 5.2 ×10⁻⁶ cm/s, a Papp B→A at 120 min, 200 μg/mL [1] of 7.03 ×10⁻⁶ cm/s and a Papp at 120 min [3] of under 60 ×10⁻⁶ cm/s.

With C=C(C)[C@@H]1CC[C@]2(C(=O)O)CC[C@]3(C)[C@H](CC[C@@H]4[C@@]5(C)CC[C@H](O)C(C)(C)[C@@H]5CC[C@]43C)[C@@H]12 [Betulinic acid] the Papp B→A at 120 min, 200 μg/mL [1] was 6.3 ×10⁻⁶ cm/s, the “detection in donor chamber, cells and receptor chamber” value (Caco-2 cell monolayers [2]; encapsulated formulation) was “detected both in the donor chamber and also inside the cells but was not detected in the receptor chamber” and the “Papp, Non encapsulated RE, AB direction” value (Caco-2 cell monolayers [2]; [7]) was “not absorbed”. For the same molecule, the “retention by Caco-2 cells” value (Caco-2 cell monolayers [2]) was “partly retained by the Caco-2 cells”.

For CC(C)c1cc2c(c(O)c1O)[C@@]1(C(=O)O)CCCC(C)(C)[C@@H]1CC2 [Carnosic acid], the Papp A→B at 120 min, 200 μg/mL [1] was 127 ×10⁻⁶ cm/s, the Papp B→A at 120 min, 200 μg/mL [1] was 90.4 ×10⁻⁶ cm/s and the “Papp, Encapsulated RE, AB direction” value (Caco-2 cell monolayers [2]; [6]) was “no absorption”.

CC(C)c1cc2c(c(O)c1O)[C@@]13CCCC(C)(C)[C@@H]1C[C@@H]2OC3=O [Carnosol] showed a Papp A→B at 120 min [1] of 0.0403 ×10⁻⁶ cm/s, a Papp A→B at 120 min, 200 μg/mL [1] of 14.6 ×10⁻⁶ cm/s and a Papp B→A at 120 min [1] of 0.261 ×10⁻⁶ cm/s. For the same molecule, the Papp B→A at 120 min, 200 μg/mL [1] was 13.5 ×10⁻⁶ cm/s and the Papp at 120 min [3] was under 60 ×10⁻⁶ cm/s.

Work on COc1cc2oc(-c3ccc(O)cc3)cc(=O)c2c(O)c1OC [Cirsimaritin] yielded a Papp A→B at 120 min, 200 μg/mL [1] of 33.3 ×10⁻⁶ cm/s, a Papp B→A at 120 min, 200 μg/mL [1] of 30.7 ×10⁻⁶ cm/s and a Papp at 120 min [3] of under 60 ×10⁻⁶ cm/s.

In the case of COc1ccc(-c2cc(=O)c3c(O)cc(O)cc3o2)cc1O [Diosmetin], the Papp A→B at 120 min, 200 μg/mL [1] is reported as 2.5 ×10⁻⁶ cm/s, the Papp B→A at 120 min, 200 μg/mL [1] is reported as 4.13 ×10⁻⁶ cm/s and the Papp at 120 min [3] is reported as under 60 ×10⁻⁶ cm/s.

With CC(C)c1cc2c(c(O)c1O)[C@@]13CCCC(C)(C)[C@@H]1[C@H](O)[C@@H]2OC3=O [Epiisorosmanol] the Papp A→B at 120 min [1] was 8.18 ×10⁻⁶ cm/s, the Papp A→B at 120 min, 200 μg/mL [1] was 104 ×10⁻⁶ cm/s and the Papp B→A at 120 min [1] was 13 ×10⁻⁶ cm/s. The Papp B→A at 120 min, 200 μg/mL [1] was 9.23 ×10⁻⁶ cm/s and the Papp at 120 min [3] was over 60 ×10⁻⁶ cm/s.

Molecule CC(C)c1cc2c(c(O)c1O)C13CCCC(C)(C)C1C(OC3=O)C2O (centres unmarked) [Epirosmanol] has a Papp A→B at 120 min [1] of 1.92 ×10⁻⁶ cm/s, a Papp A→B at 120 min, 200 μg/mL [1] of 55.1 ×10⁻⁶ cm/s and a Papp B→A at 120 min [1] of 2.63 ×10⁻⁶ cm/s. The Papp B→A at 120 min, 200 μg/mL [1] was 12.1 ×10⁻⁶ cm/s and the Papp at 120 min [3] was under 60 ×10⁻⁶ cm/s.

COc1cc(O)c2c(=O)cc(-c3ccc(O)cc3)oc2c1 [Genkwanin] showed a Papp A→B at 120 min, 200 μg/mL [1] of 14.9 ×10⁻⁶ cm/s, a Papp B→A at 120 min, 200 μg/mL [1] of 16.2 ×10⁻⁶ cm/s and a Papp at 120 min [3] of under 60 ×10⁻⁶ cm/s.

In the case of CC(C)c1cc2c(cc1O)[C@@]1(C)CCC(=O)C(C)(C)[C@@H]1CC2 [Hinokione], the Papp B→A at 120 min, 200 μg/mL (in vitro) is reported as 13.6 ×10⁻⁶ cm/s, the “Papp, Encapsulated RE, AB direction” value (Caco-2 cell monolayers [4]) is reported as “no absorption” and the “Papp, Non encapsulated RE, AB direction” value (Caco-2 cell monolayers [4]) is reported as “no absorption”.

For COc1c(O)cc2oc(-c3ccc(O)cc3)cc(=O)c2c1O [Hispidulin], the Papp A→B at 120 min, 200 μg/mL [1] was 9.05 ×10⁻⁶ cm/s, the Papp B→A at 120 min, 200 μg/mL [1] was 13.1 ×10⁻⁶ cm/s and the Papp at 120 min [3] was under 60 ×10⁻⁶ cm/s.

In the case of C=C1CCC2(C(=O)O)CCC3(C)C(=CCC4C5(C)CCC(O)C(C)(C)C5CCC43C)C2C1C (centres unmarked) [Micromeric acid], the Papp A→B at 120 min, 200 μg/mL [1] is reported as 7.2 ×10⁻⁶ cm/s, the Papp B→A at 120 min, 200 μg/mL [1] is reported as 2.45 ×10⁻⁶ cm/s and the Papp at 120 min [3] is reported as under 60 ×10⁻⁶ cm/s.

In the case of Cc1cc2c(cc(O)c1=O)[C@@]13CCCC(C)(C)[C@@H]1C[C@@H]2OC3 [Miltipolone], the Papp A→B at 120 min, 200 μg/mL [1] is reported as 17.6 ×10⁻⁶ cm/s, the Papp B→A at 120 min [1] is reported as 0.168 ×10⁻⁶ cm/s and the “Papp, Non encapsulated RE, BA direction” value (Caco-2 cell monolayers [2]; free RE 200 μg/mL, basolateral to apical, 120 min, 37°C, mean of six replicates) is reported as “not absorbed; also recorded: no absorption”. For the same molecule, the “Papp, Encapsulated RE, AB direction” value (Caco-2 cell monolayers [2]; [6]) was “no absorption” and the Papp at 120 min [3] was under 60 ×10⁻⁶ cm/s.

For CC(C)c1cc(C=O)c2c(c1O)OC(=O)[C@@]21CCCC(C)(C)[C@@H]1C=O [Rosmadial], the Papp A→B at 120 min [1] was 2.67 ×10⁻⁶ cm/s, the Papp A→B at 120 min, 200 μg/mL [1] was 19 ×10⁻⁶ cm/s and the Papp B→A at 120 min [1] was 12.4 ×10⁻⁶ cm/s. For the same molecule, the Papp B→A at 120 min, 200 μg/mL [1] was 15.9 ×10⁻⁶ cm/s and the Papp at 120 min [3] was under 60 ×10⁻⁶ cm/s.

Work on CC(C)c1cc2c(c(O)c1O)[C@@]13CCCC(C)(C)[C@@H]1[C@H](OC3=O)[C@H]2O [Rosmanol] yielded a Papp A→B at 120 min [1] of 29.1 ×10⁻⁶ cm/s, a Papp A→B at 120 min, 200 μg/mL [1] of 45.9 ×10⁻⁶ cm/s and a Papp B→A at 120 min [1] of 33.3 ×10⁻⁶ cm/s. The Papp B→A at 120 min, 200 μg/mL [1] was 44.2 ×10⁻⁶ cm/s and the Papp at 120 min [3] was under 60 ×10⁻⁶ cm/s.

With CC(C)c1cc2c(c(O)c1O)C(=O)C1CCCC(C)(C)C1CC2 (centres unmarked) [Rosmaridiphenol] the Papp A→B at 120 min, 200 μg/mL [1] was 2.43 ×10⁻⁶ cm/s, the Papp B→A at 120 min, 200 μg/mL [1] was 2.68 ×10⁻⁶ cm/s and the “Papp, Non encapsulated RE, AB direction” value (Caco-2 cell monolayers [2]; [7]) was “E-06 range”. For the same molecule, the “Papp, Encapsulated RE, AB direction” value (Caco-2 cell monolayers [2]; [6]) was “no absorption” and the Papp at 120 min [3] was under 60 ×10⁻⁶ cm/s.

For C[C@H]1[C@H](C)CC[C@]2(C(=O)O)CC[C@]3(C)C(=CC[C@@H]4[C@@]5(C)CC[C@H](O)C(C)(C)[C@@H]5CC[C@]43C)[C@H]12 [Ursolic acid], the Papp B→A at 120 min, 200 μg/mL [1] was 7.2 ×10⁻⁶ cm/s and the “retention by Caco-2 cells” value (Caco-2 cell monolayers [2]) was “partly retained by the Caco-2 cells”.

For COCCc1ccc(OCC(O)CNC(C)C)cc1 (centres unmarked) [metoprolol], the “Papp value of the reference drug” value (Caco-2 cell monolayers [5]) is given as 6e-05 cm/s.

With (9)-Shogaol [[9]-Shogaol] the “retention by Caco-2 cells / transport to the receptor chamber” value (Caco-2 cell monolayers [2]; all samples, amounts below LOQ detected in cytoplasmic fractions) was “partly retained by Caco-2 cells without any transport to the receptor chamber”.
